Data on 2 molecules can be found in US7572579B2, “Screening method for a ribonuclease H inhibitor of a reverse transcriptase” (priority 2004, dated 2009).

Where two headings read alike, the source gives them in different places.

Test [1] addresses polymerase activity of wild type reverse transcriptase of HIV (Human immunodeficiency virus type 1 group M subtype B, UniProt P04585). The test is described as follows: biochemical. The following applies: Polymerase IC50, wild type RT.
The target of test [2] is polymerase activity of Y188L mutant enzyme of HIV (Human immunodeficiency virus type 1 group M subtype B, UniProt P04585, Y775L). The test is described as follows: biochemical.
For test [3], the target named is T1, RNase H activity of Y188L mutant enzyme of HIV (Human immunodeficiency virus type 1 group M subtype B, UniProt P04585, Y775L). The test can be described thus: biochemical.
The target in test [4] is T2, RNase H activity of wild type reverse transcriptase of HIV (Human immunodeficiency virus type 1 group M subtype B, UniProt P04585). The test is described as follows: biochemical.
Test [5] has as its target T1, RNase H activity of Y188L mutant enzyme of HIV. Conditions: with preincubation.
Test [6] has as its target T2, RNase H activity of wild type reverse transcriptase of HIV. The following applies: wild type RT, with preincubation.
For another test, the system named is virus proliferation. Conditions: reported in literature; cited from earlier work.
Setting [7] is: with preincubation, with metal cofactors.
Setting [8] is: with preincubation, without metal cofactors.

As for `Cc1ccc(C(=O)Nc2ccc(S(=O)(=O)O)c3cc(S(=O)(=O)O)cc(S(=O)(=O)O)c23)cc1NC(=O)c1cccc(NC(=O)Nc2cccc(C(=O)Nc3cc(C(=O)Nc4ccc(S(=O)(=O)O)c5cc(S(=O)(=O)O)cc(S(=O)(=O)O)c45)ccc3C)c2)c1` [suramin, Suramin sodium], the IC50 (in general, the concentration at which inhibition is half-maximal) is 2.47 µM in test [1] (setting [7]); 16.2 µM in test [1] (setting [8]); over 77.1 µM in test [1] (without preincubation); 2.47 µM in test [2] (setting [7]); 10 µM in test [2] (setting [8]); over 77.1 µM in test [2] (without preincubation). In addition, the IC50 in test [3] and in test [4] was over 77.1 µM in each case. Further, the “RNaseH IC50” value in test [5] (with metal cofactors), in test [5] (without metal cofactors), in test [6] (with metal cofactors) and in test [6] (without metal cofactors) was “≈POL” throughout.
For `O=C(O)C(=O)CC(=O)c1ccc(NC(=O)c2ccccc2)s1` [Compound 1, 4-[5-(benzoylamino)thien-2-yl]-2,4-dioxobutanoic acid], the “inhibition of virus proliferation in cell-based assay” value in the test with virus proliferation is reported as “can not inhibit virus proliferation”.
